# In article PMC2834284 (Journal of medicinal chemistry, 2010):
# Entries after “also recorded” stand apart in the source; their conditions may differ.
# What was measured:
# [1] = tested on: Cryptococcus neoformans ATCC 90113; assay: In vitro antimicrobial assay, C. neoformans; format: cell-based; details: ATCC90113, read-out: C. neoformans IC50
# [2] = tested on: Plasmodium falciparum (W2 clone); assay: In vitro antimalarial assay; format: cell-based; details: W2, 72 h, read-out: P. falciparum (W2 clone) IC50
# [3] = tested on: Plasmodium berghei infected mice; assay: In vivo antimalarial assay, multiple oral dose; details: 3×5 mg/Kg
# [4] = tested on: Plasmodium falciparum (D6 clone); assay: In vitro antimalarial assay; format: cell-based; details: for IC50: Plasmodium falciparum, D6, 72 h, read-out: P. falciparum (D6 clone) IC50
# [5] = tested on: mice inoculated with P. berghei; assay: Initial in vivo evaluation; details: 3×10 mg/kg P.O.
# [6] = tested on: Mycobacterium intracellulare ATCC 23068; assay: In vitro antimicrobial assay, M. intracellulare; format: cell-based; details: ATCC23068, read-out: M. intracellulare IC50
# [7] = in vitro; details: dog, MDCK-MDR1, pH 7.4
# [8] = tested on: malarial parasites in mice; details: oral administration 2×100 μmol/Kg; cited from earlier work
# [9] = Stability in aqueous solution; format: physicochemical; details: over twenty-four months, exposure to light, room temperature, 0.05 N HCl aqueous solution (20 mg/mL)
# [10] = tested on: Plasmodium berghei infected mice; assay: In vivo antimalarial assay, oral single dose
# [11] = tested on: GSK-3β; details: panel of CDK-1, PKA, CDK-5, MAPK, GSK-3α; cited from earlier work
# [12] = tested on: methicillin-resistant Staphylococcus aureus; details: cited from earlier work
# [13] = tested on: CDK-5; details: panel of CDK-1, PKA, CDK-5, MAPK, GSK-3α; cited from earlier work
# [14] = tested on: Staphylococcus aureus; details: cited from earlier work
# [15] = tested on: rat neonatal microglia; assay: Microglia LDH release; format: cell-based; details: for cytotoxicity (lactate dehydrogenase release) at highest concentration tested: 10 μM; for LDH LDH50: concentration causing 50% of maximal LDH release triggered by 0.1% Triton X-100
# [16] = tested on: Candida albicans ATCC 90028; assay: In vitro antimicrobial assay, C. albicans; format: cell-based; details: ATCC90028, read-out: C. albicans IC50
# [17] = tested on: mice infected with malarial parasites; assay: In vivo antimalarial assay, intraperitoneal administration; details: for toxicity / adverse reactions: i.p. 10×3 mg/kg in infected mice; for Cure (number of mice without parasitemia through day 28 post infection): of 5 mice
# [18] = tested on: Mycobacterium tuberculosis; details: cited from earlier work
# [19] = tested on: M. tuberculosis (H37Rv); assay: In vitro activity against M. tuberculosis; format: cell-based; details: Mycobacterium tuberculosis, read-out: M. tuberculosis (H37Rv) MIC
# [20] = tested on: Vero cells; details: African green monkey
# [21] = i.p. 10×3 mg/kg, mean parasitemia in control group as 100%
compound,measurement,setting,value
"C[C@@H]1[C@H](O)[C@@H](C)/C=C/C=C/C=C/C=C/C=C/C=C/C=C/[C@H](O[C@@H]2O[C@H](C)[C@@H](O)[C@H](N)[C@@H]2O)C[C@@H]2O[C@](O)(C[C@@H](O)C[C@@H](O)[C@H](O)CC[C@@H](O)C[C@@H](O)CC(=O)O[C@H]1C)C[C@H](O)[C@H]2C(=O)O [Amphotericin B, reference compound]",IC50,[1],0.75 µg/mL
"C[C@@H]1CC[C@H]2[C@@H](C)C(=O)O[C@@H]3O[C@@]4(C)CC[C@@H]1[C@]32OO4 [Artemisinin, reference compound]",IC50,[2],0.008 µg/mL
CCN(CC)CCCC(C)Nc1ccnc2cc(Cl)ccc12 (centres unmarked) [Chloroquine],MST Days,[3],> 30 days
same,Inhibition of Parasitemia (%),[3]; day 5 post infection vs untreated controls,88%
same,Average % Parasitemia,[3]; day 7 post infection,4.5%
same,Average % Parasitemia,[3]; day 10 post infection,7.8%
same,Average % Parasitemia,[3]; day 14 post infection,13.5%
same,Average % Parasitemia,[3]; day 21 post infection,21.7%
same,Average % Parasitemia,[3]; day 28 post infection,39.3%
same,IC50,[4],0.016 µg/mL
same,IC50,[2],0.155 µg/mL
same,mean survival time,[5],14.3 days
"O=C(O)c1cn(C2CC2)c2cc(N3CCNCC3)c(F)cc2c1=O [Ciprofloxacin, reference compound]",IC50,[6],0.3 µg/mL
"O[C@]12C=C(c3nccc4c3[nH]c3ccccc34)[C@@H]3CCN(CCCC/C=C\CC1)C[C@@]31C[C@@H]3/C=C\CCCCN3[C@H]12 [Compound 1, manzamine A]",IC50,[1],1.5 µg/mL
same,"efflux ratio at 2 h, 50 μM",[7],< 1
same,reduction in parasitemia,[8],90%
same,IC50,[4],0.0045 µg/mL
same,stability (decomposition) in aqueous solution,[9],No significant decomposition
same,behavioral signs of toxicity,[10]; single oral dose 100 mg/kg,did not show any behavioral signs of toxicity
same,signs of toxicity,[10]; single oral dose 200 or 300 mg/kg,began to exhibit signs of toxicity beyond weight loss
same,inhibition of GSK-3β,[11],specifically inhibited
same,IC50,[2],0.008 µg/mL
same,IC50 against methicillin-resistant Staphylococcus aureus,[12],0.7 µg/mL
same,inhibition of CDK-5,[13],specifically inhibited
same,IC50 against Staphylococcus aureus,[14],0.5 µg/mL
same,cytotoxicity (lactate dehydrogenase release) at highest concentration tested,[15],minimal cytotoxicity
same,LDH LDH50,[15],>10 µM
same,IC50,[16],2 µg/mL
same,Survival (number of animal survived day 28/total animal in group),[17]; i.p. 10×3 mg/kg,0/5
same,toxicity / adverse reactions,[17],toxic
same,%parasitemia suppression Day 5,[17]; [21],100%
same,Cure (number of mice without parasitemia through day 28 post infection),[17]; i.p. 10×3 mg/kg,0/5
same,IC50,[6],0.35 µg/mL
same,inhibition of Mycobacterium tuberculosis,[18],98-99%
same,MIC,[19],1.5 µg/mL
"Oc1cccc2c1[nH]c1c(C3=C[C@@]4(O)CC/C=C\CCCCN5CC[C@@H]3[C@]3(CC6/C=C\CCCCN6[C@H]34)C5)nccc12 (some centres unmarked) [Compound 2, 8-hydroxymanzamine A]",IC50,[1],2 µg/mL
same,reduction in parasitemia,[8],90%
same,IC50,[4],0.006 µg/mL
same,IC50,[2],0.008 µg/mL
same,IC50,[16],3.5 µg/mL
same,Survival (number of animal survived day 28/total animal in group),[17]; i.p. 10×3 mg/kg,5/5
same,toxicity / adverse reactions,[17],mild reversible weight loss
same,MST (mean survival time),"[17]; i.p. 10×3 mg/kg, * death related to toxicity",> 28 days
same,%parasitemia suppression Day 5,[17]; [21],100%
same,%parasitemia suppression Day 7,[17]; [21],100%
same,Cure (number of mice without parasitemia through day 28 post infection),[17]; i.p. 10×3 mg/kg,4/5
same,IC50,[6],0.1 µg/mL
same,inhibition of Mycobacterium tuberculosis,[18],98-99%
"O[C@]12C=C(c3nccc4c3[nH]c3ccccc34)[C@@H]3CCN(CCCCCCCC1)C[C@@]31C[C@@H]3CCCCCCN3[C@H]12 [Compound 3, 15,16,32,33-tetrahydromanzamine A]",IC50,[4],0.082 µg/mL
"O[C@]12C=C(c3nccc4c3[nH]c3ccccc34)[C@@H]3CCN(CCCC/C=C\CC1)C[C@@]31C[C@@H]3CCCCCCN3[C@H]12 [Compound 5, Dihydromanzamine A]",IC50,[4],0.2 µg/mL
"CCCCn1c2ccccc2c2ccnc(C3=C[C@@]4(O)CC/C=C\CCCCN5CC[C@@H]3[C@]3(C[C@@H]6/C=C\CCCCN6[C@H]34)C5)c21 [Compound 6d, 9N-butylmanzamine A]",cytotoxicity (lactate dehydrogenase release) at highest concentration tested,[15],minimal cytotoxicity; also recorded: no toxicity
same,LDH LDH50,[15],>10 µM
"CC(C)CCn1c2ccccc2c2ccnc(C3=C[C@@]4(O)CC/C=C\CCCCN5CC[C@@H]3[C@]3(C[C@@H]6/C=C\CCCCN6[C@H]34)C5)c21 [Compound 6f, 9N-isopentylmanzamine A]",LDH LDH50,[15],>10 µM
"CC(C)(C)Cn1c2ccccc2c2ccnc(C3=C[C@@]4(O)CC/C=C\CCCCN5CC[C@@H]3[C@]3(C[C@@H]6/C=C\CCCCN6[C@H]34)C5)c21 [Compound 6g, 9N-neopentylmanzamine A]",cytotoxicity (lactate dehydrogenase release) at highest concentration tested,[15],minimal cytotoxicity; also recorded: no toxicity
same,LDH LDH50,[15],>10 µM
"CC(=O)Oc1cccc2c1[nH]c1c(C3=C[C@@]4(O)CC/C=C\CCCCN5CC[C@@H]3[C@]3(C[C@@H]6/C=C\CCCCN6[C@H]34)C5)nccc12 [Compound 9, 8-Acetoxymanzamine A]",IC50,[1],1.5 µg/mL
same,IC50,[16],1.5 µg/mL
same,IC50,[6],0.1 µg/mL
"[O-][N+]12CCCC/C=C\CC[C@]3(O)C=C(c4nccc5c4[nH]c4ccccc45)[C@H](CC1)[C@]1(C[C@@H]4/C=C\CCCC[N@+]4([O-])[C@H]13)C2 [Compound 13, 21, 27-N-oxamanzamine A]",IC50,[4],0.017 µg/mL
same,IC50,[2],0.067 µg/mL
"O=C1CCCN2[C@@H](CC1)C[C@]13CN4CCCC/C=C\CC[C@](O)(C=C(c5nccc6c5[nH]c5c(O)cccc56)C1CC4)[C@H]23 (some centres unmarked) [Compound 14, manzamine F]",IC50,[1],6.5 µg/mL
same,IC50,[4],0.78 µg/mL
"N/N=C1/CCCN2[C@@H](CC1)C[C@]13CN4CCCC/C=C\CC[C@](O)(C=C(c5nccc6c5[nH]c5c(O)cccc56)[C@@H]1CC4)[C@H]23 [Compound 15, Manzamine F-31-hydrazone]",no toxicity against Vero cells at the highest tested concentration,[20],> 4.6 µg/mL
same,IC50,[4],0.029 µg/mL
"Oc1cccc2c1[nH]c1c(C3=C[C@@]4(O)CC/C=C\CCCCN5CC[C@@H]3[C@]3(C[C@@H]6CC[C@H](O)CCCN6[C@H]34)C5)nccc12 [Compound 16, 31β-Hydroxymanzamine F]",P. falciparum (D6 clone) IC50,"[4]; chloroquine sensitive D6 clone, 72 h",did not improve the antimalarial activity
"CC[C@@]1(O)CCCN2[C@@H](CC1)C[C@]13CN4CCCC/C=C\CC[C@](O)(C=C(c5nccc6c5[nH]c5c(O)cccc56)[C@@H]1CC4)[C@H]23 [Compound 18, 31-Ethylmanzamine F]",no toxicity against Vero cells at the highest tested concentration,[20],> 4.6 µg/mL
same,IC50,[2],0.086 µg/mL
"COc1ccc2[nH]c3c(C4=C[C@@]5(O)CC/C=C\CCCCN6CC[C@@H]4[C@]4(C[C@@H]7/C=C\CCCCN7[C@H]45)C6)nccc3c2c1 [Compound 21a, 6-Methoxymanzamine A]",cytotoxicity (lactate dehydrogenase release) at highest concentration tested,[15],minimal cytotoxicity; also recorded: no toxicity
same,LDH LDH50,[15],>10 µM
"COC(=O)c1cc2c([nH]c3ccccc32)c(C2=C[C@@]3(O)CC/C=C\CCCCN4CC[C@@H]2[C@]2(C[C@@H]5/C=C\CCCCN5[C@H]23)C4)n1 [Compound 21b, Methyl manzamine A-3-carboxylate]",cytotoxicity (lactate dehydrogenase release) at highest concentration tested,[15],minimal cytotoxicity; also recorded: no toxicity
same,LDH LDH50,[15],>10 µM
